Test results taken from patent US20090318690A1 (priority 2006, published 2009).
Where a name gives a salt, the structure may show the parent alone.

Columns and labels:
[1] = molecular target: T1, serotonin transporter (SERT) (Rattus norvegicus, UniProt P31652); assay: Serotonin transporter binding inhibitory activity ([3H]paroxetine binding, rat cerebral cortex membrane fraction)
T1 construct: The rat cerebral cortex was homogenized in ice-cold 0.32 M sucrose; from tissue; host or cells: rat cerebral cortex membrane fraction
Experimental: Affinity of the test substance to a serotonin transporter (SERT) was determined by a test of inhibition of binding of [^3H]paroxetine selectively binding to SERT to a rat cerebral cortex membrane fraction by the test substance. Serotonin reuptake inhibitors are generally known to have SERT binding inhibitory activity. Based on the assumption that the intensity of SERT binding inhibitory activity of the test substance indicates the intensity of reuptake inhibitory activity, affinity of the test substance to SERT was determined and the intensity of the activity was estimated (according to the method described in Marcusson, J.; Eriksson, K; J. Neurochemistry, 1988, 51 (5), 1477).
The rat cerebral cortex was homogenized in ice-cold 0.32 M sucrose. The suspension was centrifuged at 1,000×g for 10 minutes. The resulting supernatant was further centrifuged at 20,000×g for 20 minutes. The resulting precipitate was suspended in 50 mM Tris-HCl (pH 7.4) containing 120 mM NaCl and 5 mM KCl (hereinafter called suspension A) and centrifuged at 20,000×g for 20 minutes. The same operation was repeated once more. The finally obtained precipitate was suspended in a suspension A having a wet weight about 100 times that of the rat cerebral cortex to prepare a membrane fraction which was stored at −80° C. until use.
An incubation mixture (0.5 mL) contained a solution obtained by further diluting the test substance dissolved in DMSO (dimethyl sulfoxide) to a desired concentration (control: only DMSO) 500-fold with purified water (25 μL); a [^3H]paroxetine solution (final concentration: 0.05 nM) as a ligand (25 μL); and the membrane fraction prepared as described above (450 μL). The reaction was started by addition of the membrane fraction, followed by incubation at room temperature for 90 minutes. After the incubation, the mixture was filtered by suction through a GF/B filter using a cell harvester. The filter was washed with 50 mM Tris-HCl (pH 7.4) and then radioactivity of [^3H]paroxetine binding to SERT was measured using a liquid scintillation counter. Binding detected in the presence of 1 or 10 μM fluoxetine was defined as non-specific binding.

acetylcholine esterase = molecular target: T2, acetylcholine esterase (Rattus norvegicus, UniProt P37136); assay: Acetylcholine esterase inhibitory activity (Ellman method); assay type: biochemical; details: supernatant of male Wistar rat cerebral homogenate; acetylthiocholine/DTNB, absorbance 412 nm; read-out: Acetylcholine esterase inhibition (IC50)
T2 construct: a centrifugation supernatant of a male Wistar rat cerebral homogenate as an acetylcholine esterase source; from tissue; host or cells: male Wistar rat cerebrum, Triton X-100 homogenate supernatant
T2 sequence (P37136 32-614): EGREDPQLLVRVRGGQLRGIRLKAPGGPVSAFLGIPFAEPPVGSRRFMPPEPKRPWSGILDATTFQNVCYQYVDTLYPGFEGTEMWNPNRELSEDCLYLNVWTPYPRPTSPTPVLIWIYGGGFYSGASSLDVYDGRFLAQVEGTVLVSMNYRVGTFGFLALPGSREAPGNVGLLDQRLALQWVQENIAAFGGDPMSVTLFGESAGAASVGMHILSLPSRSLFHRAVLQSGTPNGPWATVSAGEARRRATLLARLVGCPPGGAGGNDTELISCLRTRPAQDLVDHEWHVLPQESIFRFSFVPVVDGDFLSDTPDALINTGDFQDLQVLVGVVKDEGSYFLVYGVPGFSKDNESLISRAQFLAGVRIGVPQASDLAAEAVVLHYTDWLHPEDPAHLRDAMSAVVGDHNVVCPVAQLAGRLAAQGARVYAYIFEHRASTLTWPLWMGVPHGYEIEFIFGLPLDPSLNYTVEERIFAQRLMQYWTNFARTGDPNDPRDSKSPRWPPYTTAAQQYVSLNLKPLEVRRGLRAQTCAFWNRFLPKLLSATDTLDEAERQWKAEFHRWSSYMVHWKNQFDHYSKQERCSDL
Experimental: Esterase activity was measured according to the method of Ellman et al. (Biochem. Pharmacol., 1961, 7, 88-95) using a centrifugation supernatant of a male Wistar rat cerebral homogenate as an acetylcholine esterase source. First, a sample dissolved in dimethyl sulfoxide (DMSO) (10 mM) was dissolved in water to 30 μM, and eight serial dilutions were prepared at a common ratio of 3 with 30 μM as a highest concentration. Next, 18 times weight of a phosphate buffer [0.1 M phosphate buffer (0.1 M Na2HPO4, prepared from 0.1 M KH2PO4; pH 8.0) with 0.5% Triton X-100] was added to the rat cerebrum. The mixture was homogenized and centrifuged at 3000 rpm for five minutes. The supernatant was diluted 30-fold with a phosphate buffer (pH 8.0) and dispensed to a 96-well plate at 165 μL/well. 6 μL of the diluted sample was added, followed by preincubation at room temperature for about 10 minutes. Thereafter, 9 μL of a reaction mixture [10 mM 5,5′-dithiobis(2-nitrobenzoic acid) (DTNB)/0.1 M phosphate buffer (pH 7.0) with 6 μL of 0.15% NaHCO3+90 mM acetylthiocholine iodide/1 μL of H2O+2 μL of 0.1 M phosphate buffer (pH 8.0)] was added and the absorbance (412 nm) of anions (yellow) of 5-thio-2-nitrobenzoic acid generated by reaction of the produced thiocholine with DTNB anions was measured at room temperature. The acetylcholine esterase activity was determined from the change in absorbance between two minutes and four minutes after the start of the reaction. The inhibition rate (%) of the test compound was determined based on the acetylcholine esterase activity when the compound was not added as 100% and the 50% inhibition concentration (IC50) was calculated.

T1 sequence (P31652 whole entry): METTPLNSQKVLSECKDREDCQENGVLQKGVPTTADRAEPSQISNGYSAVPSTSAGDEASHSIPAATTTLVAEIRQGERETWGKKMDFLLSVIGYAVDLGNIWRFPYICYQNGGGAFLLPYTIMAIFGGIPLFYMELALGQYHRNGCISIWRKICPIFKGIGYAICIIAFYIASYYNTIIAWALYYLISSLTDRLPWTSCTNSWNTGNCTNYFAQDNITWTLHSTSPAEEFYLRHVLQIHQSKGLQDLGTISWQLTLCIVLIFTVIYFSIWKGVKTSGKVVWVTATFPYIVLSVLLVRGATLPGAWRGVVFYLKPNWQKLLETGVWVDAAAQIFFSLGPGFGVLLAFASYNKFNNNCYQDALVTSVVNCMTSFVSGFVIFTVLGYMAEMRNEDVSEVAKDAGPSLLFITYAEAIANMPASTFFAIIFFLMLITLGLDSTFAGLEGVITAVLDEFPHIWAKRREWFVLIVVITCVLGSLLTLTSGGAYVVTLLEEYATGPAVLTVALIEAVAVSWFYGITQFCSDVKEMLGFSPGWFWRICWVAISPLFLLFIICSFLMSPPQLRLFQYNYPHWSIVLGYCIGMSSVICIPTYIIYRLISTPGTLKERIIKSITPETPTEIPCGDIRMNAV

CN(C)Cc1c(OCc2ccc(F)cc2)ccc2c(CCC3CCN(CC4OCCO4)CC3)noc12 [Example 22, N,N-Dimethyl{3-{2-[1-(1,3-dioxolan-2-ylmethyl)piperidin-4-yl]ethyl}-6-(4-fluorobenzyloxy)benz[d]isoxazol-7-yl}methylamine dihydrobromide]
IC50 [1]: 1.6 nM | IC50 (acetylcholine esterase): 4.1 nM

CN(C)Cc1c(OCC2CC2)ccc2c(CCC3CCN(Cc4ccccc4)CC3)noc12 [Example 39, N,N-Dimethyl{6-cyclopropylmethoxy-3-[2-(1-benzylpiperidin-4-yl)ethyl]benz[d]isoxazol-7-yl}methylamine dihydrochloride]
IC50 [1]: 13 nM | IC50 (acetylcholine esterase): 0.4 nM

CN(C)Cc1c(OCC2CC2)ccc2c(CCC3CCN(CC4(CO)CCCC4)CC3)noc12 [Example 51, {1-{4-{2-[6-Cyclopropylmethoxy-7-(N,N-dimethylaminomethyl)benz[d]isoxazol-3-yl]ethyl}piperidinomethyl}cyclopentyl}methanol dihydrochloride]
IC50 [1]: 1.9 nM | IC50 (acetylcholine esterase): 3.6 nM

CNCc1c(OCc2ccc(F)cc2)ccc2c(CCC3CCN(CC4OCCO4)CC3)noc12 [Example 78, N-Methyl{3-{2-[1-(1,3-dioxolan-2-ylmethyl)piperidin-4-yl]ethyl}-6-(4-fluorobenzyloxy)benz[d]isoxazol-7-yl}methylamine dihydrochloride]
IC50 [1]: 1.1 nM | IC50 (acetylcholine esterase): 0.7 nM

CN(C)Cc1c(OCC2CC2)ccc2c(CCC3CCN(Cc4c[nH]c5ccc(F)cc45)CC3)noc12 [Example 88, N,N-Dimethyl{6-cyclopropylmethoxy-3-{2-[1-(5-fluoro-1H-indol-3-ylmethyl)piperidin-4-yl]ethyl}benz[d]isoxazol-7-yl}methylamine dihydrochloride]
IC50 [1]: 5.3 nM | IC50 (acetylcholine esterase): 7.7 nM

CN(C)Cc1c(OCC2CC2)ccc2c(CCC3CCN(CC4CCCc5sccc54)CC3)noc12 (centres unmarked) [Example 93, N,N-Dimethyl{6-cyclopropylmethoxy-3-{2-[1-(4,5,6,7-tetrahydrobenzo[b]thiophen-4-ylmethyl)piperidin-4-yl]ethyl}benz[d]isoxazol-7-yl}methylamine dihydrochloride]
IC50 [1]: 8.9 nM | IC50 (acetylcholine esterase): 73 nM

N#Cc1ccc(CN2CCC(CCc3noc4c(CN5CCC5)c(OCC5CC5)ccc34)CC2)s1 [Example 118, 5-{4-{2-[7-(Azetidin-1-ylmethyl)-6-cyclopropylmethoxybenz[d]isoxazol-3-yl]ethyl}piperidinomethyl}thiophene-2-carbonitrile fumarate]
IC50 [1]: 10 nM | IC50 (acetylcholine esterase): 12 nM

CN(C)Cc1c(-c2ccccc2)ccc2c(CCC3CCN(Cc4ccccc4)CC3)noc12 [Example 120, N,N-Dimethyl{3-[2-(1-benzylpiperidin-4-yl)ethyl]-6-phenylbenz[d]isoxazol-7-yl}methylamine dihydrochloride]
IC50 [1]: 0.9 nM | IC50 (acetylcholine esterase): 1.3 nM

CN(C)Cc1c2ccccc2cc2c(CCC3CCN(Cc4ccc(C#N)s4)CC3)noc12 [Example 151, 5-{4-{2-[9-(N,N-Dimethylaminomethyl)naphtho[2,3-d]isoxazol-3-yl]ethyl}piperidinomethyl}thiophene-2-carbonitrile dihydrochloride]
IC50 [1]: 54 nM | IC50 (acetylcholine esterase): 33 nM

CNCc1c2ccccc2cc2c(CCC3CCN(Cc4ccc(C#N)s4)CC3)noc12 [Example 152, 5-{4-{2-[9-(N-Methylaminomethyl)naphtho[2,3-d]isoxazol-3-yl]ethyl}piperidinomethyl}thiophene-2-carbonitrile dihydrochloride]
IC50 [1]: 10 nM | IC50 (acetylcholine esterase): 4.9 nM

CN(C)Cc1c(OCc2ccc(C#N)cc2)ccc2c(CCC3CCN(Cc4ccccc4)CC3)noc12 [Example 153, 4-{3-[2-(1-Benzylpiperidin-4-yl)ethyl]-7-(N,N-dimethylaminomethyl)benz[d]isoxazol-6-yloxymethyl}benzonitrile dihydrochloride]
IC50 [1]: 0.3 nM | IC50 (acetylcholine esterase): 0.4 nM

CN(C)Cc1c(OCc2ccc(C#N)cc2)ccc2c(CCC3CCN(CC4OCCO4)CC3)noc12 [Example 154, 4-{7-(N,N-Dimethylaminomethyl)-3-{2-[1-(1,3-dioxolan-2-ylmethyl)piperidin-4-yl]ethyl}benz[d]isoxazol-6-yloxymethyl}benzonitrile fumarate]
IC50 [1]: 1 nM | IC50 (acetylcholine esterase): 3 nM

CN(C)Cc1c(OCC2CC2)ccc2c(CCC3CCN(Cc4ccc(C#N)s4)CC3)noc12 [Example 155, 5-{4-{2-[6-Cyclopropylmethoxy-7-(N,N-dimethylaminomethyl)benz[d]isoxazol-3-yl]ethyl}piperidinomethyl}thiophene-2-carbonitrile dihydrochloride]
IC50 [1]: 5.3 nM | IC50 (acetylcholine esterase): 5 nM

CN(C)Cc1ccc2c(CCC3CCN(Cc4ccccc4)CC3)noc2c1OCC1CC1 [Example 178, N,N-Dimethyl{3-[2-(1-benzylpiperidin-4-yl)ethyl]-7-cyclopropylmethoxybenz[d]isoxazol-6-yl}methylamine dihydrochloride]
IC50 [1]: 62 nM | IC50 (acetylcholine esterase): 4.1 nM

CN(C)Cc1c(N2CCCCC2)ccc2c(CCC3CCN(Cc4ccc(C#N)s4)CC3)noc12 [Example 210, 5-{4-{2-[7-(N,N-Dimethylaminomethyl)-6-piperidinobenz[d]isoxazol-3-yl]ethyl}piperidinomethyl}thiophene-2-carbonitrile dihydrochloride]
IC50 [1]: 12 nM | IC50 (acetylcholine esterase): 2.4 nM

CN(C)Cc1c(N2CCOCC2)ccc2c(CCC3CCN(Cc4ccc(C#N)s4)CC3)noc12 [Example 213, 5-{4-{2-[7-(N,N-Dimethylaminomethyl)-6-morpholinobenz[d]isoxazol-3-yl]ethyl}piperidinomethyl}thiophene-2-carbonitrile dihydrochloride]
IC50 [1]: 19 nM | IC50 (acetylcholine esterase): 3 nM
